Source: ChEMBL document CHEMBL4819116, “Design, synthesis, and biological evaluation of stapled ascaphin-8 peptides” (Bioorg Med Chem, 2021)
Where a SMILES comes first, the peptide text is derived from it. Bridges are numbered along the chain shown (N, C = ends). [ ]: non-standard residue; d: D form. S8 = C=CCCCCCC[C@](C)(N)C(=O)O; S5 = C=CCCC[C@](C)(N)C(=O)O

How the values were obtained:
trypsin [1] = target: T1, trypsin (Homo sapiens, UniProt P07477+P07478+P35030); assay: Stability of the compound assessed as trypsin (unknown origin)-mediated degradation by measuring half life using pH 7.4 PBS buffer by HPLC analysis; assay type: ADME, protein assay; settings: trypsin in PBS buffer
A549 [2] = assay: Cytotoxicity against human A549 cells assessed as reduction in cell viability measured after 96 hrs b y CCK-8 assay; assay type: functional, cell-based; settings: A549, 96 h
[3] = Helicity of the compound in TFE aqueous solution by CD spectroscopy; assay type: physicochemical; settings: buffer
A549 [4] = assay: Antimigratory activity against human A549 cells assessed as inhibition of cell migration measured for 24 hrs by crystal violet staining - light microscopy based transwell migration assay; assay type: functional; settings: dose 0-4 µM
HEK-293T = assay: Cytotoxicity against human HEK293T cells assessed as reduction in cell viability measured after 96 hrs b y CCK-8 assay; assay type: cell-based
A549 [5] = assay: Inhibition of colony formation in human A549 cells measured after 14 days by crystal violet staining based light microscopy; assay type: functional, cell-based; settings: dose 0-4 µM, time 14.0 day
LNCaP C4-2B = assay: Cytotoxicity against human LNCaP C4-2B cells assessed as reduction in cell viability measured after 96 hrs b y CCK-8 assay; assay type: functional, cell-based
[6] = Hemolytic activity in rabbit red blood cells assessed as hemoglobin release; assay type: ADME, cell-based, Oryctolagus cuniculus, Erythrocyte
trypsin [7] = target: T1, trypsin; assay: Stability of the compound assessed as trypsin (unknown origin)-mediated degradation using pH 7.4 PBS buffer measured for 60 mins by HPLC analysis; assay type: ADME, protein assay; settings: trypsin in PBS buffer, read-out: Drug degradation

Molecule | half-life (trypsin [1]) [min] | Activity [3] [%] | metabolised at 1 h (trypsin [7]) [%] | IC50 (A549 [2]) [µM] | Activity (A549 [4]) | IC50 (HEK-293T) [µM] | inhibition (A549 [5]) | IC50 (LNCaP C4-2B) [µM] | HC50 [6] [µM]
CC(C)C[C@@H]1NC(=O)[C@H](C)NC(=O)[C@H](CCCCN)NC(=O)[C@H](C)NC(=O)[C@@](C)(NC(=O)CNC(=O)[C@H](CCCCN)NC(=O)[C@H](CC(C)C)NC(=O)[C@H](CC(C)C)NC(=O)[C@H](CC(=O)O)NC(=O)[C@H](CCCCN)NC(=O)[C@H](Cc2ccccc2)NC(=O)CN)CCCCCC/C=C/CCC[C@@](C)(C(=O)N[C@H](C(=O)N[C@@H](CC(C)C)C(=O)N[C@@H](Cc2ccccc2)C(N)=O)C(C)C)NC(=O)[C@H](CCCCN)NC(=O)[C@H](C(C)C)NC1=O (H-GFKDLLKG[S8]AKALVK[S5]VLF-NH2; staple (E) 9-16) |  | 80 |  | 11.7 |  | 44.3 |  | 17.3 | 90.5
H-GFKDLLKGAAKALVKTVLF-NH2 [Ascaphin-8] | 14 | 47 | 100 | 33.8 |  | 53.7 |  | 42.9 | > 100

Now from value to molecule, other results behind:

half-life (trypsin [1]) [min] | Activity [3] [%] | metabolised at 1 h (trypsin [7]) [%] | Molecule | IC50 (A549 [2]) [µM] | Activity (A549 [4]) | IC50 (HEK-293T) [µM] | inhibition (A549 [5]) | IC50 (LNCaP C4-2B) [µM] | HC50 [6] [µM]
36 | 51 |  | CC(C)C[C@H](NC(=O)[C@H](CC(C)C)NC(=O)[C@H](CC(=O)O)NC(=O)[C@H](CCCCN)NC(=O)[C@H](Cc1ccccc1)NC(=O)CN)C(=O)N[C@@H](CCCCN)C(=O)NCC(=O)N[C@@H](C)C(=O)N[C@@H](C)C(=O)N[C@@H](CCCCN)C(=O)N[C@@]1(C)CCC/C=C\CCC[C@@](C)(C(=O)N[C@H](C(=O)N[C@@H](CC(C)C)C(=O)N[C@@H](Cc2ccccc2)C(N)=O)C(C)C)NC(=O)[C@H](CCCCN)NC(=O)[C@H](C(C)C)NC(=O)[C@H](CC(C)C)NC1=O (H-GFKDLLKGAAK[S5]LVK[S5]VLF-NH2; staple (Z) 12-16) | 2.39 | Dose-Dependent Effect | 16.4 | Dose-Dependent Effect | 7.17 | 40.6
 | 48 |  | CC(C)C[C@H](NC(=O)[C@H](CC(=O)O)NC(=O)[C@H](CCCCN)NC(=O)[C@H](Cc1ccccc1)NC(=O)CN)C(=O)N[C@@H](CC(C)C)C(=O)N[C@@H](CCCCN)C(=O)N[C@@]1(C)CCC/C=C\CCC[C@@](C)(C(=O)N[C@@H](CC(C)C)C(=O)N[C@H](C(=O)N[C@@H](CCCCN)C(=O)N[C@H](C(=O)N[C@H](C(=O)N[C@@H](CC(C)C)C(=O)N[C@@H](Cc2ccccc2)C(N)=O)C(C)C)[C@@H](C)O)C(C)C)NC(=O)[C@H](CCCCN)NC(=O)[C@H](C)NC(=O)[C@H](C)NC1=O (H-GFKDLLK[S5]AAK[S5]LVKTVLF-NH2; staple (Z) 8-12) | 2.57 |  | 19.7 |  | 7.88 | 40.2
 | 42 |  | CC(C)C[C@H](NC(=O)[C@H](C)NC(=O)[C@H](CCCCN)NC(=O)[C@H](C)NC(=O)[C@H](C)NC(=O)[C@]1(C)CCC/C=C\CCC[C@](C)(NC(=O)[C@H](CCCCN)NC(=O)[C@H](Cc2ccccc2)NC(=O)CN)C(=O)N[C@@H](CC(C)C)C(=O)N[C@@H](CC(C)C)C(=O)N[C@@H](CCCCN)C(=O)N1)C(=O)N[C@H](C(=O)N[C@@H](CCCCN)C(=O)N[C@H](C(=O)N[C@H](C(=O)N[C@@H](CC(C)C)C(=O)N[C@@H](Cc1ccccc1)C(N)=O)C(C)C)[C@@H](C)O)C(C)C (H-GFK[S5]LLK[S5]AAKALVKTVLF-NH2; staple (Z) 4-8) | 4.1 |  | 33.9 |  | 11.1 | 79.9
